# From US20220226337A1 (Gilead Sciences, Inc., priority 2018, published 2022)
# pEC50: −log10 of the molar value.
# Target: T1, α4β7 integrin interaction with MadCAM-1 (RPMI8866 cells) (Homo sapiens, UniProt P13612+P26010)
# T1 construct: α4β7 integrin expressing cells; endogenous in cells; host or cells: RPMI8866 cells
# T1 sequence (P13612 34-1032): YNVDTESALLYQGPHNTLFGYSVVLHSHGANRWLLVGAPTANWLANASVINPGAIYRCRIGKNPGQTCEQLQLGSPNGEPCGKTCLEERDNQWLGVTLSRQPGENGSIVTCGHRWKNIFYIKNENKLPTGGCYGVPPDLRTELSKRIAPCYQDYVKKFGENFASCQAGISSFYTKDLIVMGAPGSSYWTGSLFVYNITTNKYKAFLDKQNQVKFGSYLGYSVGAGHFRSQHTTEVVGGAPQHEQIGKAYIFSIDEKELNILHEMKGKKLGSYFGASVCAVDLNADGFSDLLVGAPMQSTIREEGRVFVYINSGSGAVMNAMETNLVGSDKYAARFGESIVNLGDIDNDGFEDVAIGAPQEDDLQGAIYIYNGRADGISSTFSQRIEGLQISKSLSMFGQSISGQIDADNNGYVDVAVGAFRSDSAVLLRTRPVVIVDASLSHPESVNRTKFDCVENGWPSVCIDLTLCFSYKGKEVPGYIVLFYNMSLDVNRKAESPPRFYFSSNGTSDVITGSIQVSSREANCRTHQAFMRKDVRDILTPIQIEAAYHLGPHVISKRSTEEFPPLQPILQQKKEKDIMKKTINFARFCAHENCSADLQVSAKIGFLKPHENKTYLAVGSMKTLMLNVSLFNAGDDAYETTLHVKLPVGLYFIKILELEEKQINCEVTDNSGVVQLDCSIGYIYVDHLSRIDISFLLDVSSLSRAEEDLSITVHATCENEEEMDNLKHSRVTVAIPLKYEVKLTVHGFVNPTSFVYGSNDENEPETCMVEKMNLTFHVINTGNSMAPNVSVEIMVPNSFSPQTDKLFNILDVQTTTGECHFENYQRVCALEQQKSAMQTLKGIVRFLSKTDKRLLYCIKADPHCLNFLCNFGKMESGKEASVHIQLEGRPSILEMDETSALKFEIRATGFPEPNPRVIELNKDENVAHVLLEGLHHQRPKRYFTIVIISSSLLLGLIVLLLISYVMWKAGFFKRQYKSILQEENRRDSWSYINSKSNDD
# T1 sequence (P26010 20-798): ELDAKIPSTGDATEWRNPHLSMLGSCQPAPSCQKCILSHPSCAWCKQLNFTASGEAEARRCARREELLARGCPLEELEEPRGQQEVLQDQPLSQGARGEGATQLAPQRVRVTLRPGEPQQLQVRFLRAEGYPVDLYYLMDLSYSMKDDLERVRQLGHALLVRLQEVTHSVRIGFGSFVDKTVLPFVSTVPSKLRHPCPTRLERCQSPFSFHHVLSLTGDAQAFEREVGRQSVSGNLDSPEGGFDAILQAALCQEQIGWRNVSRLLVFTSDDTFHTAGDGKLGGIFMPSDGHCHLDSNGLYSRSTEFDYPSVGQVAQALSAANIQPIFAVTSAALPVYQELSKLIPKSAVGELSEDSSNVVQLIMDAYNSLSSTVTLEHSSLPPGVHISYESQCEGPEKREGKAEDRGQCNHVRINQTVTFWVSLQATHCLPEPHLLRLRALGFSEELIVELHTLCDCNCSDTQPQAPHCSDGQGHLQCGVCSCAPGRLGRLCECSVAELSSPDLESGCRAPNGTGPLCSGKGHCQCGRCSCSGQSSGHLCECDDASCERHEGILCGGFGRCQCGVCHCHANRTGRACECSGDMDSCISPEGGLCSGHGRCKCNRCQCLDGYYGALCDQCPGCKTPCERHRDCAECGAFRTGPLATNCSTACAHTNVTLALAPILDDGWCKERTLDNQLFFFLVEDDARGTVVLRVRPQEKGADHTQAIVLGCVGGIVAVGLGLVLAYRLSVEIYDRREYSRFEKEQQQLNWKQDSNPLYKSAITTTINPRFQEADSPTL
# Test: α4β7 Integrin Cell Capture Assay
# Assay type: cell-based
# Details: capture of α4β7 integrin expressing RPMI8866 cells on recombinant MadCAM-1 extracellular domain-coated plate; 0.5 mM MnCl2
# Procedure: The potency of inhibitors in preventing α4β7 integrin interaction with MadCAM-1 was measured by monitoring the capture of α4β7 integrin expressing cells on a recombinant MadCAM-1 extracellular domain-coated plate. 384-well plates (Corning 3702) were coated with MadCAM-1 extracellular domain by dispensing 20 μL of MAdCAM-1 at 1.0 μg/mL per well and incubating overnight at 4° C. The plates were then washed with PBS and blocked with 3% BSA for 2 hours before being washed again. RPMI8866 cells were spun down and re-suspended in assay medium (DMEM+0.5% FBS+0.5 mM MnCl2) at a density of 0.5×10^6 cells/mL. The cells were then dispensed (60 μL/well) to a 384-well plate (Greiner 781280) that was previously spotted with 60 nL of test compound per well. The plates were incubated at 37° C. for 1 hour. 50 μL of cells were transferred to the blocked, MadCAM-1-coated plates and incubated for 30 minutes at 37° C. 10 μL of 12% glutaraldehyde containing Hoechst 33342 (0.06 mg/mL) was added to the cells (2% glutaraldehyde and 0.01 mg/mL final concentrations). The plates were incubated for 90 minutes at room temperature. The plates were then washed 3 times with 70 μL of PBS per well and imaged on a Cellomics ArrayScan instrument. The cells that were bound to the plate were counted and plotted against the compound concentration to determine the EC50 of the test compounds.
row,SMILES,pEC50
1,"Cc1nc(-c2ccc(C[C@H](NC(=O)c3c(F)cccc3F)C(=O)O)c3c2OCCO3)c(C(F)(F)F)c2ccccc12 [Example 2, (S)-2-(2,6-difluorobenzamido)-3-(8-(1-methyl-4-(trifluoromethyl)isoquinolin-3-yl)-2,3-dihydrobenzo[b][1,4]dioxin-5-yl)propanoic acid]",8.43
2,CCc1nc(-c2ccc(C[C@H](NC(=O)c3c(F)cccc3F)C(=O)O)c3c2OCCO3)c(C(F)(F)F)c2ccccc12 [Example 3],8.19
3,"O=C(N[C@@H](Cc1ccc(-c2c(Cl)cc(F)cc2Cl)c2c1OCCO2)C(=O)O)c1c(F)cccc1F [Example 4, (S)-3-(8-(2,6-dichloro-4-fluorophenyl)-2,3-dihydrobenzo[b][1,4]dioxin-5-yl)-2-(2,6-difluorobenzamido)propanoic acid]",7.58
4,"O=C(N[C@@H](Cc1ccc(-c2c(Cl)cc(F)cc2Cl)c2c1OCCO2)C(=O)O)c1c(Cl)cccc1Cl [Example 5, (S)-3-(8-(2,6-dichloro-4-fluorophenyl)-2,3-dihydrobenzo[b][1,4]dioxin-5-yl)-2-(2,6-dichlorobenzamido)propanoic acid]",7.26
5,"O=C(N[C@@H](Cc1ccc(-c2c(Cl)cc(F)cc2Cl)c2c1OCCO2)C(=O)O)c1c(F)cccc1OC(F)F [Example 6, (S)-3-(8-(2,6-dichloro-4-fluorophenyl)-2,3-dihydrobenzo[b][1,4]dioxin-5-yl)-2-(2-(difluoromethoxy)-6-fluorobenzamido)propanoic acid]",6.35
6,"Cc1cccc(F)c1C(=O)N[C@@H](Cc1ccc(-c2c(Cl)cc(F)cc2Cl)c2c1OCCO2)C(=O)O [Example 7, (S)-3-(8-(2,6-dichloro-4-fluorophenyl)-2,3-dihydrobenzo[b][1,4]dioxin-5-yl)-2-(2-fluoro-6-methylbenzamido)propanoic acid]",7.42
7,"CC[C@@H](Nc1cc(F)c(C(=O)N[C@@H](Cc2ccc(-c3c(C)n(C)c(=O)n(C)c3=O)c3c2OCCO3)C(=O)O)c(F)c1)C(F)(F)F [Example 10, (S)-2-(2,6-difluoro-4-(((R)-1,1,1-trifluorobutan-2-yl)amino)benzamido)-3-(8-(1,3,6-trimethyl-2,4-dioxo-1,2,3,4-tetrahydropyrimidin-5-yl)-2,3-dihydrobenzo[b][1,4]dioxin-5-yl)propanoic acid]",9.06
8,"COc1cc2ccccc2cc1-c1ccc(C[C@H](NC(=O)c2c(F)cccc2F)C(=O)O)c2c1OCCO2 [Example 11, (S)-2-(2,6-difluorobenzamido)-3-(8-(3-methoxynaphthalen-2-yl)-2,3-dihydrobenzo[b][1,4]dioxin-5-yl)propanoic acid]",7.53
9,"O=C(N[C@@H](Cc1ccc(-c2ncc3ccccc3c2C(F)(F)F)c2c1OCCO2)C(=O)O)c1c(F)cccc1F [Example 12, (S)-2-(2,6-difluorobenzamido)-3-(8-(4-(trifluoromethyl)isoquinolin-3-yl)-2,3-dihydrobenzo[b][1,4]dioxin-5-yl)propanoic acid]",7.86
10,"CC[C@@H](Nc1cc(F)c(C(=O)N[C@@H](Cc2ccc(-c3c(C(F)(F)F)cc(C)n(C)c3=O)c3c2COC3)C(=O)O)c(F)c1)C(F)(F)F [Example 13, (S)-2-(2,6-difluoro-4-(((R)-1,1,1-trifluorobutan-2-yl)amino)benzamido)-3-(7-(1,6-dimethyl-2-oxo-4-(trifluoromethyl)-1,2-dihydropyridin-3-yl)-1,3-dihydroisobenzofuran-4-yl)propanoic acid]",9.41
11,"Cc1c(-c2ccc(C[C@H](NC(=O)c3c(F)cc(N4CCOC[C@@H]4C(F)(F)F)cc3F)C(=O)O)c3c2COC3)c(=O)n(C)c(=O)n1C [Example 14, (S)-2-(2,6-difluoro-4-((R)-3-(trifluoromethyl)morpholino)benzamido)-3-(7-(1,3,6-trimethyl-2,4-dioxo-1,2,3,4-tetrahydropyrimidin-5-yl)-1,3-dihydroisobenzofuran-4-yl) propanoic acid]",9.42
12,"CC[C@@H](Nc1cc(F)c(C(=O)N[C@@H](Cc2ccc(-c3c(C)n(C)c(=O)n(C)c3=O)c3c2COC3)C(=O)O)c(F)c1)C(F)(F)F [Example 15, (S)-2-(2,6-difluoro-4-(((R)-1,1,1-trifluorobutan-2-yl)amino)benzamido)-3-(7-(1,3,6-trimethyl-2,4-dioxo-1,2,3,4-tetrahydropyrimidin-5-yl)-1,3-dihydroisobenzofuran-4-yl)propanoic acid]",9.03
13,"O=C(N[C@@H](Cc1ccc(-c2c(Cl)cc(F)cc2Cl)c2c1COC2)C(=O)O)c1c(F)cccc1F [Example 16, (S)-3-(7-(2,6-dichloro-4-fluorophenyl)-1,3-dihydroisobenzofuran-4-yl)-2-(2,6-difluorobenzamido)propanoic acid]",7.51
14,"O=C(N[C@@H](Cc1ccc(-c2c(Cl)cc(F)cc2Cl)c2c1COC2)C(=O)O)c1c(Cl)cccc1Cl [Example 17, (S)-3-(7-(2,6-dichloro-4-fluorophenyl)-1,3-dihydroisobenzofuran-4-yl)-2-(2,6-dichlorobenzamido)propanoic acid]",6.90
15,"Cc1c(-c2ccc(C[C@H](NC(=O)c3c(F)cccc3F)C(=O)O)c3c2COC3)c(=O)n(C)c(=O)n1C [Example 18, (S)-2-(2,6-difluorobenzamido)-3-(7-(1,3,6-trimethyl-2,4-dioxo-1,2,3,4-tetrahydropyrimidin-5-yl)-1,3-dihydroisobenzofuran-4-yl)propanoic acid]",8.28
16,"Cc1cc(C(F)(F)F)c(-c2ccc(C[C@H](NC(=O)c3c(F)cc(N4CCOC[C@@H]4C(F)(F)F)cc3F)C(=O)O)c3c2COC3)c(=O)n1C [Example 19, (S)-2-(2,6-difluoro-4-((R)-3-(trifluoromethyl)morpholino)benzamido)-3-(7-(1,6-dimethyl-2-oxo-4-(trifluoromethyl)-1,2-dihydropyridin-3-yl)-1,3-dihydroisobenzofuran-4-yl)propanoic acid]",9.71
17,"Cc1cc(C(F)(F)F)c(-c2ccc(C[C@H](NC(=O)c3c(F)cc(N[C@H](C)C(F)(F)F)cc3F)C(=O)O)c3c2COC3)c(=O)n1C [Example 20, (S)-2-(2,6-difluoro-4-(((R)-1,1,1-trifluoropropan-2-yl)amino)benzamido)-3-(7-(1,6-dimethyl-2-oxo-4-(trifluoromethyl)-1,2-dihydropyridin-3-yl)-1,3-dihydroisobenzofuran-4-yl)propanoic acid]",9.62
